Literature values, collected in patent publication US20090214682A1, “Composition and methods for weight loss in a subject” (priority 2008, published 2009).
Like-named read-outs stand apart in the source and are kept apart here.

Key:
[1] = 8 weeks, overweight subjects, vs placebo
[2] = not given; remark: listed apart in the source
[3] = rats, high fat diet, 12 weeks
[4] = vs placebo
[5] = not given; remark: listed apart in the source
[6] = obese women
[7] = rats
[8] = not given; remark: listed apart in the source

For chromium polynicotinate, the systolic blood pressure (vs control groups) is given as “effective in lowering systolic blood pressure”, the “free radical damage in liver and kidney tissue” value (vs controls) is given as “less free radical damage” and the body fat [1] is given as “significant loss of body fat”.
In the case of `[Cr]` [Chromium], the body fat ([2]; combined with exercise) is listed as “reduce body fat”, the lean mass ([2]; combined with exercise) is listed as “increase lean mass” and the HDL cholesterol ([2]; human, in vivo) is listed as “increase HDL”.
In the case of `Cn1c(=O)c2[nH]cnc2n(C)c1=O` [theophylline, 3,7-dihydro-1,3-dimethyl-1H-purine-2,6-dione], the body fat [3] is listed as “generally reduced”.
For `CCCCCCCCCCCC(C[C@@H]1OC(=O)[C@H]1CCCCCC)OC(=O)[C@H](CC(C)C)NC=O` (stereo partly drawn) [orlistat, N-formyl-L-leucine-1-[[(2S,3S)-3-hexyl-4oxo-2-oxetanyl]methyl]dodecyl ester], the LDL cholesterol levels ([4]; one year treatment) is listed as “greater improvements then placebo”, the total serum cholesterol ([4]; one year treatment) is listed as “greater improvements then placebo” and the weight loss ([4]; persons with type 2 diabetes) is listed as “more significant weight loss then the placebo group”. The tolerability ([5]; 60 mg vs larger dose) was “generally better tolerated”, the “efficacy for weight loss relative to prescription dose” value ([5]; OTC 60 mg vs prescription 120 mg) was “about 85%” and the “inhibition of absorption of ingested fats” value ([5]; OTC dose 60 mg) was “about 25%”. For the same molecule, the “average weight loss of initial body weight” value ([5]; OTC dose 60 mg, over 16 weeks) was “about 5%”.
In the case of `Cn1c(=O)c2c(ncn2C)n(C)c1=O` [caffeine, 3,7-dihydro-1,3,7-trimethyl-1H-purine-2,6-dione], the body fat [3] is listed as “generally reduced”, the “abdominal adipose tissue weight” value ([3]; vs control group) is listed as “significant decrease” and the serum triglyceride levels ([3]; vs control group) is listed as “significant decrease”. For the same molecule, the weight loss [6] was “Significant weight loss”.
For `O=C(O)CC(O)(C(=O)O)C(O)C(=O)O` (stereo not shown) [HCA, 1,2-dihydroxypropane-1,2,3-tricarboxylic acid], the appetite [7] is listed as “repress appetite”, the fatty acid synthesis [7] is listed as “inhibit fatty acid synthesis” and the caloric intake ([8]; clinical studies) is listed as “reduction in caloric intake”. For the same molecule, the blood cholesterol profile ([8]; daily, moderate exercise, 8 weeks) was “improved blood cholesterol profile”, the weight loss ([8]; daily, moderate exercise, 8 weeks, vs placebo) was “increased weight loss” and the serotonin levels ([8]; human, in vivo) was “significantly increased”. The “fat oxidation during exercise” value ([8]; untrained men and women) was “increasing fat oxidation”.
